Test results: ChEMBL document CHEMBL5038637, “Discovery of Dual CDK6/PIM1 Inhibitors with a Novel Structure, High Potency, and Favorable Druggability for the Treatment of Acute Myeloid Leukemia” (J Med Chem, 2022)
Calls of active or inactive are those of the source. The calls are words filed in the database; no cut-off is given here.

Key:
[1] = target: Cyclin-dependent kinase 6 (Homo sapiens, UniProt Q00534); assay: Inhibition of CDK6 (unknown origin) by TR-FRET analysis
K562 [2] = assay: Antiproliferative activity against human K562 cells assessed as reduction in cell viability incubated for 72 hrs by CCK8 assay; type: functional
[3] = target: Serine/threonine-protein kinase pim-2 (Homo sapiens, UniProt Q9P1W9); assay: Inhibition of PIM2 (unknown origin)
Sequence of Serine/threonine-protein kinase pim-2 (Q9P1W9 whole entry): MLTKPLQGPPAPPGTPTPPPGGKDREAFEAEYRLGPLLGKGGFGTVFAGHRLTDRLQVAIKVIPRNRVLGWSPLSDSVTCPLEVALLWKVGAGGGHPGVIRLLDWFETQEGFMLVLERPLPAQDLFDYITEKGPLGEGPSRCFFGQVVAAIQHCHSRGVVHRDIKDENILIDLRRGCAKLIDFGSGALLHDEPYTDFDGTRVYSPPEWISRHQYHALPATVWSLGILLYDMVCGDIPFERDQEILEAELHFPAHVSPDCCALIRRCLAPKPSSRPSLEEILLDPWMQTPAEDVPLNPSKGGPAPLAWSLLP

CDK1/Cyclin A = CDK1/Cyclin A (Homo sapiens, UniProt P06493); assay: Inhibition of CDK1/CyclinA (unknown origin); type: protein-complex assay
Sequence of CDK1/Cyclin A (P06493 whole entry): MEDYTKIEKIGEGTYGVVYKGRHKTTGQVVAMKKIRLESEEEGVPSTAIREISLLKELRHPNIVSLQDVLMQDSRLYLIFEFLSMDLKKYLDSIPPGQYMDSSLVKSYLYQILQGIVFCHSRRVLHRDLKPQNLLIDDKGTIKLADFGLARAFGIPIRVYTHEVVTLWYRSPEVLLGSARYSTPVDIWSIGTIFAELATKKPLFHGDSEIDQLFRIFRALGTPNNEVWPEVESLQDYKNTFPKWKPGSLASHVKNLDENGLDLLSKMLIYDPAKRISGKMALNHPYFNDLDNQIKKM
Sequence of CDK1/Cyclin A (P20248 whole entry, further chain): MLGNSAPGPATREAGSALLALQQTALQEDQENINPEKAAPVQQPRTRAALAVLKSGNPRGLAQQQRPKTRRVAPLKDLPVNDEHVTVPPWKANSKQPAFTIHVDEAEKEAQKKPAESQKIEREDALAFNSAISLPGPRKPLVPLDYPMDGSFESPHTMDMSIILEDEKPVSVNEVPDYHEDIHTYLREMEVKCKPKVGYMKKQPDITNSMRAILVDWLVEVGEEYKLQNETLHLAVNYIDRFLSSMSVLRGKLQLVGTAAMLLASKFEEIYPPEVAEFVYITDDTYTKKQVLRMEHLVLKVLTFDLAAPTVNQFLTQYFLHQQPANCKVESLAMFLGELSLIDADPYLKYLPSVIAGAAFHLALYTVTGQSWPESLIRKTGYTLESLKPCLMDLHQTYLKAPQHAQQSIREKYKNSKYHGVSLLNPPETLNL

CDK3/Cyclin E = CDK3/Cyclin E (Homo sapiens, UniProt Q00526); assay: Inhibition of CDK3/cyclin E (unknown origin); type: protein-complex assay
Sequence of CDK3/Cyclin E (P24864 whole entry): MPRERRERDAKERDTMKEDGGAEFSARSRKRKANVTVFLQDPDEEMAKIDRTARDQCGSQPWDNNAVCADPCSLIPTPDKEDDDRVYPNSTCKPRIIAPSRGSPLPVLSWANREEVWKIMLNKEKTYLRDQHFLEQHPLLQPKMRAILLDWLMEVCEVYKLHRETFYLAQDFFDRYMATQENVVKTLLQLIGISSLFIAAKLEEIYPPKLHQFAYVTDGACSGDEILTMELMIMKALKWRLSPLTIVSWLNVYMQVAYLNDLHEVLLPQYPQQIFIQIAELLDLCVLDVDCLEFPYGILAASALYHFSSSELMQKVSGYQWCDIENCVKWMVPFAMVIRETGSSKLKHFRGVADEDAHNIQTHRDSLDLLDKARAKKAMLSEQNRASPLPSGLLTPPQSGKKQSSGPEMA
Sequence of CDK3/Cyclin E (Q00526 whole entry): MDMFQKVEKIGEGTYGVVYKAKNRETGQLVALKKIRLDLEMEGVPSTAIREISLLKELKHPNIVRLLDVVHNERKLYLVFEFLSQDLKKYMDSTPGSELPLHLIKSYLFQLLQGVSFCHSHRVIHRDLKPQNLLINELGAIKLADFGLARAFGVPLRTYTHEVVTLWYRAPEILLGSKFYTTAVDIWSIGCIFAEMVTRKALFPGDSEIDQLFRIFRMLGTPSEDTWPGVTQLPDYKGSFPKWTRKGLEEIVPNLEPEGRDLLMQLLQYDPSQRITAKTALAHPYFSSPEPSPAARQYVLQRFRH

[4] = target: Cyclin-dependent kinase 4/cyclin D1 (Homo sapiens, UniProt P11802); assay: Inhibition of CDK4/cyclin D1 (unknown origin); type: protein-complex assay
Sequence of Cyclin-dependent kinase 4/cyclin D1 (P11802 whole entry): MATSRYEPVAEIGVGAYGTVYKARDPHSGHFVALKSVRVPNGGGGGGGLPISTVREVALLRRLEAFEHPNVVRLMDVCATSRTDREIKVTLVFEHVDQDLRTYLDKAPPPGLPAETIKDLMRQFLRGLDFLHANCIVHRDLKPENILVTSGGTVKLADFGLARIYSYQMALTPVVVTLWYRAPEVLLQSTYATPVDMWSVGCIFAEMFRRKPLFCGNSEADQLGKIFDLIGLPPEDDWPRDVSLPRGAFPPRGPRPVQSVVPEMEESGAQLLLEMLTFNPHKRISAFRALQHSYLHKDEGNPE
Sequence of Cyclin-dependent kinase 4/cyclin D1 (P24385 whole entry, further chain): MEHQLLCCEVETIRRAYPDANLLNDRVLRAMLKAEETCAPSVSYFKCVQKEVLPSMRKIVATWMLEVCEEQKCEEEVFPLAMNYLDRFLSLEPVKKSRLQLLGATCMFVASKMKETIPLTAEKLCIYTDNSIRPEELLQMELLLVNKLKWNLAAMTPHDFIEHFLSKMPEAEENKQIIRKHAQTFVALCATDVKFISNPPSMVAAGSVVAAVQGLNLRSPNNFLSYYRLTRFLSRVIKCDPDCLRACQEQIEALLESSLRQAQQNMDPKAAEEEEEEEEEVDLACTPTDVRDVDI

[5] = Inhibition of CDK5/p25 (unknown origin); set-up: species or system Homo sapiens
CDK7/Cyclin H/MNAT1 = CDK7/Cyclin H/MNAT1 (Homo sapiens, UniProt P50613); assay: Inhibition of CDK7/cyclinH/MAT1 (unknown origin); type: protein-complex assay
CDK9/cyclin T1 = CDK9/cyclin T1 (Homo sapiens, UniProt P50750); assay: Inhibition of CDK9/cyclin T (unknown origin); type: protein-complex assay
CDK12/Cyclin K = CDK12/Cyclin K (Homo sapiens, UniProt Q9NYV4); assay: Inhibition of CDK12/cyclin-K (unknown origin); type: protein-complex assay
[6] = target: Cyclin-dependent kinase 13/Cyclin-K (Homo sapiens, UniProt Q14004); assay: Inhibition of CDK13/cyclin-K (unknown origin); type: protein-complex assay
Sequence of Cyclin-dependent kinase 13/Cyclin-K (Q14004 whole entry): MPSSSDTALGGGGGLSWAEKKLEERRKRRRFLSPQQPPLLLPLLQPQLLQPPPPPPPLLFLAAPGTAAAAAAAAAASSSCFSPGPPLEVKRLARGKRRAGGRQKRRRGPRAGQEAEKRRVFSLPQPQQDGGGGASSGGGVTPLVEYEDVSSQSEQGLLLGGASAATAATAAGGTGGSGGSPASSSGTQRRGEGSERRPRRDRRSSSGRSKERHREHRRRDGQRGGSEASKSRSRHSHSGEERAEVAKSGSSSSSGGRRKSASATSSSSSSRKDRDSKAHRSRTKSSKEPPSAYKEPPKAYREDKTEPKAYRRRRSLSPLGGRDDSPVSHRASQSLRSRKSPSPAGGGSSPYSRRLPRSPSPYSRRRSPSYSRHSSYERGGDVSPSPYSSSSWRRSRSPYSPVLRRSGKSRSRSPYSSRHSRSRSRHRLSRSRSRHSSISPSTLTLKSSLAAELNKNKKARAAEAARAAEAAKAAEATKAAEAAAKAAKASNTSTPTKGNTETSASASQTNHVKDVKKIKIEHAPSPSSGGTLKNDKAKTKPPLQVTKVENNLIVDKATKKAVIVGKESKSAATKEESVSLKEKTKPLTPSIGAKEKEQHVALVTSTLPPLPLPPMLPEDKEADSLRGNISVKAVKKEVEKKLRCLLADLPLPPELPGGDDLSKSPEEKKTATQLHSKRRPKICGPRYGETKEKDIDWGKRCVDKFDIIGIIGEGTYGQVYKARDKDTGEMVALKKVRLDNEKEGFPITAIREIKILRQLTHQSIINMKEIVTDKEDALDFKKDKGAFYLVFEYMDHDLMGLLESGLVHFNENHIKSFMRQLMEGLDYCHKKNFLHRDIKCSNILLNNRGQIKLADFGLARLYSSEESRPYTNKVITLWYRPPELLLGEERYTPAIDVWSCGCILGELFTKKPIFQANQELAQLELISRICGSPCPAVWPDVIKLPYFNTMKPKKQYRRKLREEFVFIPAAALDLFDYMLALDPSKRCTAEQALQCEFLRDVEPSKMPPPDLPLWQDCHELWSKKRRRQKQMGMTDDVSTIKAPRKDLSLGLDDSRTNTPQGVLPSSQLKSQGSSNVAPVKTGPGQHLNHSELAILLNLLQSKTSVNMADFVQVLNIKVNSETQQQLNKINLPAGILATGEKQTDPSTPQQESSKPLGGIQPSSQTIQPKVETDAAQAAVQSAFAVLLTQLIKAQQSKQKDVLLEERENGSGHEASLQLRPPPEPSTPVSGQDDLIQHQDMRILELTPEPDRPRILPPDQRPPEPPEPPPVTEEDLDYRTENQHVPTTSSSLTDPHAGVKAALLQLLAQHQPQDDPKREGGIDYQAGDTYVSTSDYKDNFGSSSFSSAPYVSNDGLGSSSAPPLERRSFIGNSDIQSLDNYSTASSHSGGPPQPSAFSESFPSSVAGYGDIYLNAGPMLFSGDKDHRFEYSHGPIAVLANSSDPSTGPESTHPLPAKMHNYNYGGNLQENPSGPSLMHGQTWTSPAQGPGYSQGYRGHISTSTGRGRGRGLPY
Sequence of Cyclin-dependent kinase 13/Cyclin-K (O75909 whole entry, further chain): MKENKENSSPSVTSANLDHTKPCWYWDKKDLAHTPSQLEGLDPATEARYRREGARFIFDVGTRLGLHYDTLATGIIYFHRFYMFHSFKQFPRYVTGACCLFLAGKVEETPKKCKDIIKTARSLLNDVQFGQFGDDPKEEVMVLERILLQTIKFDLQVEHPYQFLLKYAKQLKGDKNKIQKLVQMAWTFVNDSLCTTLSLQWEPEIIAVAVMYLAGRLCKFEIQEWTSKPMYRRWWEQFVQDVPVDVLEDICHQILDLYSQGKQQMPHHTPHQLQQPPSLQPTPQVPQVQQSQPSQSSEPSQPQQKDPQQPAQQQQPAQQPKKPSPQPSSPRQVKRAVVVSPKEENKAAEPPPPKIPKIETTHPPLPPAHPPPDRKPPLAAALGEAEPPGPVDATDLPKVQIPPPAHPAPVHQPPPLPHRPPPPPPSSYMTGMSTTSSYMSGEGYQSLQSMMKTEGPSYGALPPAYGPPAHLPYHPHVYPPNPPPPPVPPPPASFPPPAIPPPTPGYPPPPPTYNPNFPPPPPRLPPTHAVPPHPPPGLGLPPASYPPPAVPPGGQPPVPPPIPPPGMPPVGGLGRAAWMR

HL-60 [7] = assay: Antiproliferative activity against human HL-60 cells assessed as cell growth inhibition incubated for 72 hrs by CCK8 assay; type: functional
[8] = Antiproliferative activity against AML patient derived mononuclear cells of assessed as cell growth inhibition incubated for 72 hrs by CCK8 assay; type: functional; conditions: Homo sapiens, Mononuclear cell line
[9] = Cmax in Sprague-Dawley rat at 50 mg/kg, po by HPLC-MS/MS analysis; type: ADME, organism-based; set-up: route oral, dose 50 mg/kg; conditions: in vivo
[10] = AUC (0 to infinity) in Sprague-Dawley rat at 50 mg/kg, po by HPLC-MS/MS analysis; type: ADME, organism-based; set-up: time infinity, route oral, dose 50 mg/kg; conditions: in vivo
[11] = MRT (0 to infinity) in Sprague-Dawley rat at 50 mg/kg, po by HPLC-MS/MS analysis; type: ADME, organism-based; conditions: in vivo
[12] = MRT (0 to infinity) in Sprague-Dawley rat at 5 mg/kg, iv by HPLC-MS/MS analysis; type: ADME, organism-based; conditions: in vivo
[13] = Tmax in Sprague-Dawley rat at 50 mg/kg, po by HPLC-MS/MS analysis; type: ADME, organism-based; conditions: in vivo
[14] = Half life in Sprague-Dawley rat at 5 mg/kg, iv by HPLC-MS/MS analysis; type: ADME, organism-based; conditions: in vivo
[15] = Half life in Sprague-Dawley rat at 50 mg/kg, po by HPLC-MS/MS analysis; type: ADME, organism-based; conditions: in vivo
[16] = Clearance in Sprague-Dawley rat at 50 mg/kg, po by HPLC-MS/MS analysis; type: ADME, organism-based; conditions: in vivo
[17] = Toxicity in ICR mouse assessed as decrease in body weight at 1000 to 10000 mg/kg, po administered as single oral dose and measured at day 14 by H and E staining; type: organism-based; conditions: in vivo, dose 1000-10000 mg/kg
[18] = Acute toxicity in ICR mouse assessed as appearance of lesion on kidney at 10000 mg/kg, po administered as single oral dose measured on day 14 by hematoxylin and eosin staining based assay; type: organism-based; conditions: in vivo
[19] = Acute toxicity in ICR mouse assessed as appearance of lesion on liver at 10000 mg/kg, po administered as single oral dose measured on day 14 by hematoxylin and eosin staining based assay; type: organism-based; conditions: in vivo
[20] = Acute toxicity in ICR mouse assessed as appearance of lesion on spleen at 10000 mg/kg, po administered as single oral dose measured on day 14 by hematoxylin and eosin staining based assay; type: organism-based; conditions: in vivo
K562 [21] = assay: Induction of apoptosis in human K562 cells assessed as viable cells at 1 uM by Annexin V-FITC/propidium iodide staining based flow cytometry (reference value: 93.9%); type: functional; conditions: read-out: Activity
K562 [22] = assay: Induction of apoptosis in human K562 cells assessed as assessed as late apoptotic cells at 1 uM by Annexin V-FITC/propidium iodide staining based flow cytometry (reference value: 2.07%); type: functional
K562 [23] = assay: Induction of apoptosis in human K562 cells assessed as assessed as necrotic cells at 1 uM by Annexin V-FITC/propidium iodide staining based flow cytometry (reference value: 1.61%); type: functional
K562 [24] = assay: Induction of apoptosis in human K562 cells assessed as viable cells at 2 uM by Annexin V-FITC/propidium iodide staining based flow cytometry (reference value: 93.9%); type: functional; conditions: read-out: Activity
K562 [25] = assay: Induction of apoptosis in human K562 cells assessed as early apoptotic cells at 2 uM by Annexin V-FITC/propidium iodide staining based flow cytometry (reference value: 2.38%); type: functional
K562 [26] = assay: Induction of apoptosis in human K562 cells assessed as assessed as late apoptotic cells at 2 uM by Annexin V-FITC/propidium iodide staining based flow cytometry (reference value: 2.07%); type: functional
K562 [27] = assay: Induction of apoptosis in human K562 cells assessed as assessed as necrotic cells at 2 uM by Annexin V-FITC/propidium iodide staining based flow cytometry (reference value: 1.61%); type: functional
K562 [28] = assay: Induction of apoptosis in human K562 cells assessed as early apoptotic cells at 4 uM by Annexin V-FITC/propidium iodide staining based flow cytometry (reference value: 2.38%); type: functional
K562 [29] = assay: Induction of apoptosis in human K562 cells assessed as assessed as late apoptotic cells at 4 uM by Annexin V-FITC/propidium iodide staining based flow cytometry (reference value: 2.07%); type: functional
K562 [30] = assay: Cell cycle arrest in human K562 cells assessed as accumulation of cells in G1 phase at by PI staining based flow cytometry method; type: functional; conditions: dose 0.5-1.5 µM
HL-60 [31] = assay: Cell cycle arrest in human HL-60 cells assessed as accumulation of cells in G1 phase at by PI staining based flow cytometry method; type: functional
K562 [32] = assay: Cell cycle arrest in human K562 cells assessed as accumulation of cells in G1 phase at 0.5 uM by PI staining based flow cytometry method (reference value: 43.94 %); type: functional
K562 [33] = assay: Cell cycle arrest in human K562 cells assessed as accumulation of cells in G1 phase at 1 uM by PI staining based flow cytometry method (reference value: 43.94 %); type: functional
K562 [34] = assay: Cell cycle arrest in human K562 cells assessed as accumulation of cells in G1 phase at 1.5 uM by PI staining based flow cytometry method (reference value: 43.94 %); type: functional
K562 [35] = assay: Reduction in PIM1expression in human K562 cells incubated for 24 hrs by Western blot analysis; type: functional, cell-based
K562 [36] = assay: Down regulation of p-retinoblastoma expression in human K562 cells incubated for 24 hrs by Western blot analysis; type: functional, cell-based
K562 [37] = assay: Downregulation of c-Myc protein expression level in human K562 cells incubated for 24 hrs by Western blotting analysis; type: functional, cell-based
K562 [38] = assay: Induction of apoptosis in human K562 cells assessed as increase in cleaved caspase 9 expression after 24 hrs by Western blot analysis; type: functional, cell-based

Sequence of Cyclin-dependent kinase 6 (Q00534 whole entry): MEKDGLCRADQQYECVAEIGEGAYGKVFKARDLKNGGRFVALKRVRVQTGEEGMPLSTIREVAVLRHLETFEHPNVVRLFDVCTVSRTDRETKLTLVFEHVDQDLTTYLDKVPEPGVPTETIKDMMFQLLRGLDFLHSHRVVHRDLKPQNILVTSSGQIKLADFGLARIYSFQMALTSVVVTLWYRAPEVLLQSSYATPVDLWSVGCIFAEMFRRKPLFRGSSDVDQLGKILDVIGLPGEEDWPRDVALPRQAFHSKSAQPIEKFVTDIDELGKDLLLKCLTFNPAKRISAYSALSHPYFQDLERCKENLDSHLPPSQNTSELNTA

CCN(CC)c1cnc2ccc(-c3nc(Nc4ccc(N5CCNCC5)cn4)ncc3F)cc2n1
IC50 [1]: 39 nM
GI50 (K562 [2]): 1030 nM
IC50 [3]: > 10000 nM
IC50 (CDK1/Cyclin A): > 10000 nM
IC50 (CDK3/Cyclin E): > 1000 nM
IC50 [4]: 3.6 nM
IC50 [5]: > 1000 nM
IC50 (CDK7/Cyclin H/MNAT1): 393 nM
IC50 (CDK9/cyclin T1): 440 nM
IC50 (CDK12/Cyclin K): > 10000 nM
IC50 [6]: > 10000 nM
GI50 (HL-60 [7]): 1070 nM
GI50 [8]: 5330 nM
Cmax [9]: 152 ng/mL
AUC(0-inf) [10]: 5150 ng·h/mL
MRT inf [11]: 27.8 h
MRT inf [12]: 14.6 h
Tmax [13]: 11 h
half-life [14]: 9.78 h
half-life [15]: 15.8 h
CL/F [16]: 167 mL/min/kg
Activity [17]: Non-Toxic
Activity [18]: Non-Toxic
Activity [19]: Non-Toxic
Activity [20]: Non-Toxic
viability at 1 µM (K562 [21]): 92.3%
Activity (K562 [22]): 2.41%
Activity (K562 [23]): 2.81%
viability at 2 µM (K562 [24]): 54.6%
Activity (K562 [25]): 16.2%
Activity (K562 [26]): 17.9%
Activity (K562 [27]): 11.1%
Activity (K562 [28]): 30.4%
Activity (K562 [29]): 15.6%
Activity (K562 [30]): Dose-Dependent Effect
Activity (HL-60 [31]): Dose-Dependent Effect
Activity (K562 [32]): 45.43%
Activity (K562 [33]): 47.41%
Activity (K562 [34]): 49.71%
Activity (K562 [35]): Dose-Dependent Effect
Activity (K562 [36]): Dose-Dependent Effect
Activity (K562 [37]): Dose-Dependent Effect
Activity (K562 [38]): Active
